In brackets after ≈: the same amount, converted by molar mass.
Key:
Format in all cases: cell-based
[1] = tested on: Streptococcus pyogenes 1079; experiment: MIC, microtiter broth dilution (NCCLS M100-S14), S. pyogenes 1079 (ermB); settings: Streptococcus pyogenes 1079
Method in brief: (§1)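 DMSO stocks, 40 mg/ml; trays scored for MIC following M100-S14 (NCCLS).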

[2] = tested on: Streptococcus pneumoniae 1016; experiment: MIC, microtiter broth dilution (NCCLS M100-S14), S. pneumoniae 1016 (susceptible); settings: Streptococcus pneumoniae 1016
Method in brief: as §1

[3] = tested on: Streptococcus pneumoniae 1175; settings: Streptococcus pneumoniae 1175; microtiter broth dilution
Method in brief: as §1

[4] = tested on: Streptococcus pneumoniae 1095; settings: Streptococcus pneumoniae 1095; microtiter broth dilution
Method in brief: as §1

[5] = tested on: Haemophilus influenzae 1218; experiment: MIC, microtiter broth dilution (NCCLS M100-S14), H. influenzae 1218 (susceptible); settings: Haemophilus influenzae 1218
Method in brief: as §1

| Compound | MIC S. pyogenes 1079 [1] [µg/mL] | MIC S. pneumo. 1016 [2] [µg/mL] | MIC S. pneumo. 1175 [3] [µg/mL] | MIC S. pneumo. 1095 [4] [µg/mL] | MIC H. influenzae 1218 [5] [µg/mL] |
| --- | --- | --- | --- | --- | --- |
| CCC1OC(=O)C(C)C(=O)C(C)C(OC2OC(C)CC(N(C)C)C2O)C(C)(OC)CC(C)C(=O)C(C)C2N(C3CN(S(=O)(=O)c4ccc(-n5cccn5)c(C#N)c4)C3)C(=O)OC12C (centres unmarked) [Example 3.50] | 0.25 (≈ 0.278 µM) | <0.06 | <0.06 | <0.06 | 1 (≈ 1.11 µM) |
| CCC1OC(=O)C(C)C(=O)C(C)C(OC2OC(C)CC(N(C)C)C2O)C(C)(OC)CC(C)C(=O)C(C)C2N(C3CN(S(=O)(=O)c4ccc(-c5nnn(C)n5)cc4)C3)C(=O)OC12C (centres unmarked) [Example 3.51, 3-descladinosyl-11,12-dideoxy-6-O-methyl-3-oxo-12,11-(oxycarbonyl-(1-(4-(2-methyl-2H-tetrazol-5-yl)benzenesulfonyl)-azetidin-3-yl)-imino)-erythromycin A] | 0.5 (≈ 0.562 µM) | <0.06 | <0.06 | <0.06 | 2 (≈ 2.25 µM) |
| CCC1OC(=O)C(C)C(=O)C(C)C(OC2OC(C)CC(N(C)C)C2O)C(C)(OC)CC(C)C(=O)C(C)C2N(C3CN(S(=O)(=O)c4ccc(-n5cncn5)cc4)C3)C(=O)OC12C (centres unmarked) [Example 3.52, 3-descladinosyl-11,12-dideoxy-6-O-methyl-3-oxo-12,11-(oxycarbonyl-(1-(4-(1H-1,2,4-triazol-1-yl)benzenesulfonyl)-azetidin-3-yl)-imino)-erythromycin A] | 4 (≈ 4.57 µM) | <0.06 | 0.12 (≈ 0.137 µM) | 0.12 (≈ 0.137 µM) | 2 (≈ 2.29 µM) |
| CCC1OC(=O)C(C)C(=O)C(C)C(OC2OC(C)CC(N(C)C)C2O)C(C)(OC)CC(C)C(=O)C(C)C2N(C3CN(S(=O)(=O)c4ccc(-n5ccnc5)c(C)c4)C3)C(=O)OC12C (centres unmarked) [Example 3.53, 4-(1H-imidazol-1-yl)-3-methylbenzenesulfonyl] | 64 (≈ 72.1 µM) | <0.06 | 0.25 (≈ 0.282 µM) | <0.06 | 4 (≈ 4.5 µM) |
| CCC1OC(=O)C(C)C(=O)C(C)C(OC2OC(C)CC(N(C)C)C2O)C(C)(OC)CC(C)C(=O)C(C)C2N(C3CN(S(=O)(=O)c4ccc(-c5nc6ccc(C)cc6s5)cc4)C3)C(=O)OC12C (centres unmarked) [Example 3.54, 3-descladinosyl-11,12-dideoxy-4-O-methyl-3-oxo-12,11-(oxycarbonyl-(1-(4-(6-methylbenzo[d]thiazol-2-yl)benzenesulfonyl)-azetidin-3-yl)imino)-erythromycin A] | 8 (≈ 8.38 µM) | <0.06 | 4 (≈ 4.19 µM) | 4 (≈ 4.19 µM) | >64.00 |
| CCC1OC(=O)C(C)C(=O)C(C)C(OC2OC(C)CC(N(C)C)C2O)C(C)(OC)CC(C)C(=O)C(C)C2N(C3CN(S(=O)(=O)c4ccc(-n5nccn5)cc4)C3)C(=O)OC12C (centres unmarked) [Example 3.55, 3-descladinosyl-11,12-dideoxy-4-O-methyl-3-oxo-12,11-(oxycarbonyl-(1-(4-(2H-1,2,3-triazol-2-yl)benzenesulfonyl)-azetidin-3-yl)-imino)erythromycin A] | <0.06 | <0.06 | <0.06 | <0.06 | 1 (≈ 1.14 µM) |
| CCC1OC(=O)C(C)C(=O)C(C)C(OC2OC(C)CC(N(C)C)C2O)C(C)(OC)CC(C)C(=O)C(C)C2N(C3CN(S(=O)(=O)c4ccc(-c5nnco5)cc4)C3)C(=O)OC12C (centres unmarked) [Example 3.56, 3-descladinosyl-11,12-dideoxy-6-O-methyl-3-oxo-12,11-(oxycarbonyl-(1-(4-(1,3,4-oxadiazol-2-yl)benzenesulfonyl)-azetidin-3-yl)-imino)-erythromycin A] | 0.5 (≈ 0.571 µM) | <0.06 | <0.06 | <0.06 | 1 (≈ 1.14 µM) |
| CCC1OC(=O)C(C)C(=O)C(C)C(OC2OC(C)CC(N(C)C)C2O)C(C)(OC)CC(C)C(=O)C(C)C2N(C3CN(S(=O)(=O)c4ccc5nn[nH]c5c4)C3)C(=O)OC12C (centres unmarked) [Example 3.57] | 4 (≈ 4.71 µM) | <0.06 | 8 (≈ 9.42 µM) | <0.06 | 1 (≈ 1.18 µM) |
| CCC1OC(=O)C(C)C(=O)C(C)C(OC2OC(C)CC(N(C)C)C2O)C(C)(OC)CC(C)C(=O)C(C)C2N(C3CN(S(=O)(=O)c4cccc(-n5cccn5)c4)C3)C(=O)OC12C (centres unmarked) [Example 3.58, 3-descladinosyl-11,12-dideoxy-6-O-methyl-3-oxo-12,11-(oxycarbonyl-(1-(3-(1H-pyrazol-1-yl)benzenesulfonyl)-azetidin-3-yl)-imino)-erythromycin A] | 4 (≈ 4.58 µM) | <0.06 | <0.06 | <0.06 | 1 (≈ 1.14 µM) |
| CCC1OC(=O)C(C)C(=O)C(C)C(OC2OC(C)CC(N(C)C)C2O)C(C)(OC)CC(C)C(=O)C(C)C2N(C3CN(S(=O)(=O)c4cccc(-c5ncno5)c4)C3)C(=O)OC12C (centres unmarked) [Example 3.59] | 64 (≈ 73.1 µM) | <0.06 | 8 (≈ 9.13 µM) | 8 (≈ 9.13 µM) | 16 (≈ 18.3 µM) |
| CCC1OC(=O)C(C)C(=O)C(C)C(OC2OC(C)CC(N(C)C)C2O)C(C)(OC)CC(C)C(=O)C(C)C2N(C3CN(S(=O)(=O)c4cccc(-c5nnc(C)o5)c4)C3)C(=O)OC12C (centres unmarked) [Example 3.60, 3-descladinosyl-11,12-dideoxy-6-O-methyl-3-oxo-12,11-(oxycarbonyl-(1-(3-(5-methyl-1,3,4-oxadiazol-2-yl)benzenesulfonyl)-azetidin-3-yl)imino)erythromycin A] | 4 (≈ 4.49 µM) | <0.06 | 0.12 (≈ 0.135 µM) | <0.06 | 2 (≈ 2.25 µM) |
| CCC1OC(=O)C(C)C(=O)C(C)C(OC2OC(C)CC(N(C)C)C2O)C(C)(OC)CC(C)C(=O)C(C)C2N(C3CN(S(=O)(=O)c4ccc(-c5nnc(C)o5)cc4)C3)C(=O)OC12C (centres unmarked) [Example 3.61, 3-descladinosyl-11,12-dideoxy-4-O-methyl-3-oxo-12,11-(oxycarbonyl-(1-(4-(5-methyl-1,3,4-oxadiazol-2-yl)benzenesulfonyl)-azetidin-3-yl)-imino)-erythromycin A] | 2 (≈ 2.25 µM) | <0.06 | 0.12 (≈ 0.135 µM) | 2 (≈ 2.25 µM) | 2 (≈ 2.25 µM) |
| CCC1OC(=O)C(C)C(=O)C(C)C(OC2OC(C)CC(N(C)C)C2O)C(C)(OC)CC(C)C(=O)C(C)C2N(C3CN(S(=O)(=O)c4cccc(-c5nnco5)c4)C3)C(=O)OC12C (centres unmarked) [Example 3.62, 3-descladinosyl-11,12-dideoxy-6-O-methyl-3-oxo-12,11-(oxycarbonyl-(1-(3-(1,3,4-oxadiazol-2-yl)benzenesulfonyl)-azetidin-3-yl)-imino)erythromycin A] | 8 (≈ 9.13 µM) | <0.06 | 0.5 (≈ 0.571 µM) | <0.06 | 2 (≈ 2.28 µM) |
